Reference: ChEMBL document CHEMBL4507280 (2021)

What was measured:
[1] = molecular target: Serine/threonine-protein kinase TAO1 (Homo sapiens) (UniProt Q7L7X3); conditions: Compound concentration 1000.0 nM
[2] = molecular target: Dual specificity mitogen-activated protein kinase kinase 3 (Homo sapiens) (UniProt P46734); conditions: Compound concentration 1000.0 nM
[3] = molecular target: Fibroblast growth factor receptor 1 (Homo sapiens) (UniProt P11362); conditions: Compound concentration 1000.0 nM
[4] = molecular target: Calcium/calmodulin-dependent protein kinase type IV (Homo sapiens) (UniProt Q16566); conditions: Compound concentration 1000.0 nM
[5] = molecular target: Dual specificity tyrosine-phosphorylation-regulated kinase 2 (Homo sapiens) (UniProt Q92630); conditions: Compound concentration 1000.0 nM
[6] = molecular target: Mitogen-activated protein kinase kinase kinase kinase 5 (Homo sapiens) (UniProt Q9Y4K4); conditions: Compound concentration 1000.0 nM
[7] = molecular target: 3-phosphoinositide-dependent protein kinase 1 (Homo sapiens) (UniProt O15530); conditions: Compound concentration 1000.0 nM
[8] = molecular target: Mitogen-activated protein kinase 9 (Homo sapiens) (UniProt P45984); conditions: Compound concentration 1000.0 nM
[9] = molecular target: 5-hydroxytryptamine receptor 1E (Homo sapiens) (UniProt P28566); conditions: Compound concentration 10.0 uM
[10] = molecular target: Muscarinic acetylcholine receptor M4 (Homo sapiens) (UniProt P08173); conditions: Compound concentration 10.0 uM
[11] = molecular target: cAMP-dependent protein kinase catalytic subunit PRKX (Homo sapiens) (UniProt P51817); conditions: Compound concentration 1000.0 nM
[12] = molecular target: Tyrosine-protein kinase HCK (Homo sapiens) (UniProt P08631); conditions: Compound concentration 1000.0 nM
[13] = molecular target: Inhibitor of nuclear factor kappa-B kinase subunit beta (Homo sapiens) (UniProt O14920); conditions: Compound concentration 1000.0 nM
[14] = molecular target: Maternal embryonic leucine zipper kinase (Homo sapiens) (UniProt Q14680); conditions: Compound concentration 1000.0 nM
[15] = molecular target: Non-receptor tyrosine-protein kinase TYK2 (Homo sapiens) (UniProt P29597); conditions: Compound concentration 1000.0 nM
[16] = system: Mast/stem cell growth factor receptor Kit (Homo sapiens), P10721 [V559D,T670I]; conditions: Compound concentration 1000.0 nM
[17] = molecular target: Activin receptor type-1 (Homo sapiens) (UniProt Q04771); conditions: Compound concentration 1000.0 nM
[18] = molecular target: Mitogen-activated protein kinase kinase kinase 11 (Homo sapiens) (UniProt Q16584); conditions: Compound concentration 1000.0 nM
[19] = molecular target: Interferon-induced, double-stranded RNA-activated protein kinase (Homo sapiens) (UniProt P19525); conditions: Compound concentration 1000.0 nM
[20] = molecular target: Serine/threonine-protein kinase Nek10 (Homo sapiens) (UniProt Q6ZWH5); conditions: Compound concentration 1000.0 nM
[21] = molecular target: Serine/threonine-protein kinase Nek4 (Homo sapiens) (UniProt P51957); conditions: Compound concentration 1000.0 nM
[22] = molecular target: 5-hydroxytryptamine receptor 3A (Homo sapiens) (UniProt P46098); conditions: Compound concentration 10.0 uM
[23] = molecular target: Serine/threonine-protein kinase LATS1 (Homo sapiens) (UniProt O95835); conditions: Compound concentration 1000.0 nM
[24] = molecular target: SNF-related serine/threonine-protein kinase (Homo sapiens) (UniProt Q9NRH2); conditions: Compound concentration 1000.0 nM
[25] = molecular target: Dual specificity tyrosine-phosphorylation-regulated kinase 1A (Homo sapiens) (UniProt Q13627); conditions: Compound concentration 1000.0 nM
[26] = molecular target: Mitogen-activated protein kinase 6 (Homo sapiens) (UniProt Q16659); conditions: Compound concentration 1000.0 nM
[27] = molecular target: Serine/threonine-protein kinase Nek5 (Homo sapiens) (UniProt Q6P3R8); conditions: Compound concentration 1000.0 nM
[28] = molecular target: Mitogen-activated protein kinase kinase kinase 9 (Homo sapiens) (UniProt P80192); conditions: Compound concentration 1000.0 nM
[29] = molecular target: Histamine H3 receptor (Homo sapiens) (UniProt Q9Y5N1); conditions: Compound concentration 10.0 uM
[30] = molecular target: Tyrosine-protein kinase receptor TYRO3 (Homo sapiens) (UniProt Q06418); conditions: Compound concentration 1000.0 nM
[31] = molecular target: Receptor tyrosine-protein kinase erbB-4 (Homo sapiens) (UniProt Q15303); conditions: Compound concentration 1000.0 nM
[32] = molecular target: Ephrin type-A receptor 6 (Homo sapiens) (UniProt Q9UF33); conditions: Compound concentration 1000.0 nM
[33] = molecular target: Mitogen-activated protein kinase 15 (Homo sapiens) (UniProt Q8TD08); conditions: Compound concentration 1000.0 nM
[34] = molecular target: Dual specificity mitogen-activated protein kinase kinase 7 (Homo sapiens) (UniProt O14733); conditions: Compound concentration 1000.0 nM
[35] = molecular target: Cyclin-dependent kinase-like 5 (Homo sapiens) (UniProt O76039); conditions: Compound concentration 1000.0 nM
[36] = molecular target: Interleukin-1 receptor-associated kinase 3 (Homo sapiens) (UniProt Q9Y616); conditions: Compound concentration 1000.0 nM
[37] = molecular target: Phosphatidylinositol 3-kinase C2 domain-containing subunit gamma (Homo sapiens) (UniProt O75747); conditions: Compound concentration 1000.0 nM
[38] = molecular target: Phosphatidylinositol 4,5-bisphosphate 3-kinase catalytic subunit gamma isoform (Homo sapiens) (UniProt P48736); conditions: Compound concentration 1000.0 nM
[39] = molecular target: Activated CDC42 kinase 1 (Homo sapiens) (UniProt Q07912); conditions: Compound concentration 1000.0 nM
[40] = molecular target: Calcium/calmodulin-dependent protein kinase type 1B (Homo sapiens) (UniProt Q6P2M8); conditions: Compound concentration 1000.0 nM
[41] = system: Proto-oncogene tyrosine-protein kinase receptor Ret (Homo sapiens), P07949 [V804M]; conditions: Compound concentration 1000.0 nM
[42] = molecular target: D(1A) dopamine receptor (Homo sapiens) (UniProt P21728); conditions: Compound concentration 10.0 uM
[43] = molecular target: Serine/threonine-protein kinase MARK2 (Homo sapiens) (UniProt Q7KZI7); conditions: Compound concentration 1000.0 nM
[44] = molecular target: Mitogen-activated protein kinase 8 (Homo sapiens) (UniProt P45983); conditions: Compound concentration 1000.0 nM

3-phosphoinositide-dependent protein kinase 1 (Homo sapiens), sequence (O15530 whole entry): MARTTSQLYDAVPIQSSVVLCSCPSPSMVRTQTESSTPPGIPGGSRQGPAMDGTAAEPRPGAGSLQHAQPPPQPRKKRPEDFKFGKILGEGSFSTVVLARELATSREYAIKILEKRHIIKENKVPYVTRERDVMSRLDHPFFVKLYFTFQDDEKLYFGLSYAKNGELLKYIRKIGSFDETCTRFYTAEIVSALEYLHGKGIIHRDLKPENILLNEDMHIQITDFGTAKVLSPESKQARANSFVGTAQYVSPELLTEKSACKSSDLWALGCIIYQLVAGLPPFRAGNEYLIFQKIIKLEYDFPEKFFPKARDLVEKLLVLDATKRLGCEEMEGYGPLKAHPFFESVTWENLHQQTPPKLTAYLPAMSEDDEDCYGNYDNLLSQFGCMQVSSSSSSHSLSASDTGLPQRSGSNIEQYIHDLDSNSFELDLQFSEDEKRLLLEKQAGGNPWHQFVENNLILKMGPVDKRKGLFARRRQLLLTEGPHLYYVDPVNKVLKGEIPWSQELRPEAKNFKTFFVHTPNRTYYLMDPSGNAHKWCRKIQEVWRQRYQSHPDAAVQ
Fibroblast growth factor receptor 1 (Homo sapiens), sequence (P11362 22-822 limits assumed): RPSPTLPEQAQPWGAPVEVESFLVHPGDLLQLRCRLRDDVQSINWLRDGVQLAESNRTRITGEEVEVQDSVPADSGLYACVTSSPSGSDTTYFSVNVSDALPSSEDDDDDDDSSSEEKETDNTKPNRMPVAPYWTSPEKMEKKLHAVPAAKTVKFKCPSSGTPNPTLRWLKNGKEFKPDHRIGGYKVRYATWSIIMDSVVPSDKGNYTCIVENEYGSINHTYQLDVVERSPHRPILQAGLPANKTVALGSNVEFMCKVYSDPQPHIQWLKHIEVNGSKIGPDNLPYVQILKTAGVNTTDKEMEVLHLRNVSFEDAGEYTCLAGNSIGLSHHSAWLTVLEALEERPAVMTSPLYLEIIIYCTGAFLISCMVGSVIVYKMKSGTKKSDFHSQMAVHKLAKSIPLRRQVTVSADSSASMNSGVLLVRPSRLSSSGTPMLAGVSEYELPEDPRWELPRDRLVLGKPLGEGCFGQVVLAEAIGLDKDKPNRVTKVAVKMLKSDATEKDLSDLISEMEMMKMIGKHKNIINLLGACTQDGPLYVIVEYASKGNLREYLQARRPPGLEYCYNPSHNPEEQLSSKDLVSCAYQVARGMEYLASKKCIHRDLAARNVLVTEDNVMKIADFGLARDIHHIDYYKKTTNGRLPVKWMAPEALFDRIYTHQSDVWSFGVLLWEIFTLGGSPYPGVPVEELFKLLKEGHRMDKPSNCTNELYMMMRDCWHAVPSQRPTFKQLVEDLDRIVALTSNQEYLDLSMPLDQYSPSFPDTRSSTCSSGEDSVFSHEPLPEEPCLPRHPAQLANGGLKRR
5-hydroxytryptamine receptor 3A (Homo sapiens), sequence (P46098 whole entry): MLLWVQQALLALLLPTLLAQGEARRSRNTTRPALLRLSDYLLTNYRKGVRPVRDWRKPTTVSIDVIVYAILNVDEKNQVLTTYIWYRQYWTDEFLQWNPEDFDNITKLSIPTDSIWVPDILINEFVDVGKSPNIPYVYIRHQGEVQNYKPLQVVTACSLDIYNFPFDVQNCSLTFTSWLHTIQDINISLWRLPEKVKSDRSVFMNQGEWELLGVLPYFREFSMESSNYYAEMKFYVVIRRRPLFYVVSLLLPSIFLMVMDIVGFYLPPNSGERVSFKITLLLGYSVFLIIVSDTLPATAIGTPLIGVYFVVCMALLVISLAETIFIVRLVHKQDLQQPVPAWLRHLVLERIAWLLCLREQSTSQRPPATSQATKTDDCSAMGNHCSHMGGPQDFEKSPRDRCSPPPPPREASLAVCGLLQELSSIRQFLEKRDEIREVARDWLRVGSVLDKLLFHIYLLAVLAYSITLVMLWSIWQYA
Histamine H3 receptor (Homo sapiens), sequence (Q9Y5N1 whole entry): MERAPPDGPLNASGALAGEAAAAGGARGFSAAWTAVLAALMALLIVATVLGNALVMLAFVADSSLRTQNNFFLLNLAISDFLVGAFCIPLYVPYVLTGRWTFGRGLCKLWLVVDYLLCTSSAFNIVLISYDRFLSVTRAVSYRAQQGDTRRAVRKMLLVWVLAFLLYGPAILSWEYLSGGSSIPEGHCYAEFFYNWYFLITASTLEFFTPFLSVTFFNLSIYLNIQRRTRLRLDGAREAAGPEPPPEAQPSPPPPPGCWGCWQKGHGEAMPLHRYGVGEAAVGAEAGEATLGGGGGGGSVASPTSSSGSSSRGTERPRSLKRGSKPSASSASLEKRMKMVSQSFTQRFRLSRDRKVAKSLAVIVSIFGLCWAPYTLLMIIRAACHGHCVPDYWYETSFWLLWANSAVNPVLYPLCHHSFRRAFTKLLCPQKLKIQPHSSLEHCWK
Serine/threonine-protein kinase Nek10 (Homo sapiens), sequence (Q6ZWH5 whole entry): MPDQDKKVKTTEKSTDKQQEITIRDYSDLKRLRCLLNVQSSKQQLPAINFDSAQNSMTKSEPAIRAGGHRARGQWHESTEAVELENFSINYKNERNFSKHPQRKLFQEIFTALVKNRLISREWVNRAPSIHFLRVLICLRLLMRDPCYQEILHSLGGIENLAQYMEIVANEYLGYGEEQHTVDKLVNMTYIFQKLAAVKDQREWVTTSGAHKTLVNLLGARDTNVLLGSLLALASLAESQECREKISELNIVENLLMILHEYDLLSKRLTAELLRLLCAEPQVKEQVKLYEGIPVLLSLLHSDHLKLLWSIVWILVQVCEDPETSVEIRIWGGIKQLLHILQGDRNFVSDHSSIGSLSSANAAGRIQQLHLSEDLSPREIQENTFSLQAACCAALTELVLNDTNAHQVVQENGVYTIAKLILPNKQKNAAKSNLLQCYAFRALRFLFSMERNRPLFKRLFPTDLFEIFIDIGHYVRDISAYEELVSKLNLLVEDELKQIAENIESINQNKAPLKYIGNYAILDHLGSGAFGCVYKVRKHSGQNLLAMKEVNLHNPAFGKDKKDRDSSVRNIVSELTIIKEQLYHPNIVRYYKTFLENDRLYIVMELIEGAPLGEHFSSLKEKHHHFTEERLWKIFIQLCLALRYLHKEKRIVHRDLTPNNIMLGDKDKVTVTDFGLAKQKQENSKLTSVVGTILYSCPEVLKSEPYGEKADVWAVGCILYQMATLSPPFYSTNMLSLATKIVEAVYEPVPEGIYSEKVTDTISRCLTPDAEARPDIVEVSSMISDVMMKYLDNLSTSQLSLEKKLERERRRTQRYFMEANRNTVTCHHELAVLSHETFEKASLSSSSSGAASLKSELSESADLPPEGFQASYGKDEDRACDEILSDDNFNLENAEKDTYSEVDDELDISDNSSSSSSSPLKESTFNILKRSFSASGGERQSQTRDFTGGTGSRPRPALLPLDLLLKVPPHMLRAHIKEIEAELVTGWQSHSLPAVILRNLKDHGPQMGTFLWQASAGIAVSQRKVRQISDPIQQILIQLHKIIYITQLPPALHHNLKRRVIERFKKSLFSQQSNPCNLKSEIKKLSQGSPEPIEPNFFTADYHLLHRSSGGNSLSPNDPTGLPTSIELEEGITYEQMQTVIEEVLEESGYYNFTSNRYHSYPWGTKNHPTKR
Calcium/calmodulin-dependent protein kinase type IV (Homo sapiens), sequence (Q16566 whole entry): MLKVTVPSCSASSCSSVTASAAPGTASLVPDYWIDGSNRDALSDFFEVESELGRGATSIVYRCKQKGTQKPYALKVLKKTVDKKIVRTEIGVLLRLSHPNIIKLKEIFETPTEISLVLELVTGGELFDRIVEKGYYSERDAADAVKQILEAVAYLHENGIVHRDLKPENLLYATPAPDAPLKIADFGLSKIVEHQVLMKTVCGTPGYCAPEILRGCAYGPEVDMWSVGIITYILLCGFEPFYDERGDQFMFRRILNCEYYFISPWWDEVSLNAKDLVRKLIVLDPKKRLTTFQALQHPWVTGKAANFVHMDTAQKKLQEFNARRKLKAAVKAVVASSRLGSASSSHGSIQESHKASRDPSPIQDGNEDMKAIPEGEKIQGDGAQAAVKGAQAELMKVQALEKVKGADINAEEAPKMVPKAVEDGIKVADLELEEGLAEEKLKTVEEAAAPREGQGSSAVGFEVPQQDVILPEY
Dual specificity mitogen-activated protein kinase kinase 7 (Homo sapiens), sequence (O14733 whole entry): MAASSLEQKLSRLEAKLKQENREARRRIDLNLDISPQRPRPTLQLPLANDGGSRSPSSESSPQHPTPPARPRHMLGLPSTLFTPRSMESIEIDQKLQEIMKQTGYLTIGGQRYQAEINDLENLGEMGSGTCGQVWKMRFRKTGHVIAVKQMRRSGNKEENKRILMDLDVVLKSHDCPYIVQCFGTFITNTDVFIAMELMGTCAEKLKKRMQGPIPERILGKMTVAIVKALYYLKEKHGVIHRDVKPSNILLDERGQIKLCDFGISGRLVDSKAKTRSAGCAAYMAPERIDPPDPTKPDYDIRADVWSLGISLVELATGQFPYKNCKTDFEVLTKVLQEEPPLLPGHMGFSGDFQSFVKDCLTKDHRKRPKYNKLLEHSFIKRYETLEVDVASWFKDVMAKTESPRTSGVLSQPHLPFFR
D(1A) dopamine receptor (Homo sapiens), sequence (P21728 whole entry): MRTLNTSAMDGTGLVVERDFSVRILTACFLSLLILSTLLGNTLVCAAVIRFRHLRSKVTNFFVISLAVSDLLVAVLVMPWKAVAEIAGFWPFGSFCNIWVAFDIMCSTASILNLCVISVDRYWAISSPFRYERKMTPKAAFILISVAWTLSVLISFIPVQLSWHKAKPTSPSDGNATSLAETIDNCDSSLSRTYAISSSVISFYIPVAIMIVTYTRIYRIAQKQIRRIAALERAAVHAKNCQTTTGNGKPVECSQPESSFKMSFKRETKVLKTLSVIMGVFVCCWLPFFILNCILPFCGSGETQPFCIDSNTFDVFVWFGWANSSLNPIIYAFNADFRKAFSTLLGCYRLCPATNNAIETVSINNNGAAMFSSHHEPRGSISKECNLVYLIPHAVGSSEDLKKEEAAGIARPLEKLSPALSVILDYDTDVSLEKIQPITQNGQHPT

CCC(=O)N[C@@H]1CC[C@H](C(=O)N(C)c2ccc(-c3nc4ccccc4o3)cc2)C1 [BI 99990]
residual activity [1]: 97%
residual activity [2]: 91%
residual activity [3]: 87%
residual activity [4]: 100%
residual activity [5]: 100%
residual activity [6]: 91%
residual activity [7]: 100%
residual activity [8]: 98%
inhibition [9]: -5.68%
inhibition [10]: 5.19%
residual activity [11]: 100%
residual activity [12]: 100%
residual activity [13]: 100%
residual activity [14]: 100%
residual activity [15]: 100%
residual activity [16]: 93%
residual activity [17]: 94%
residual activity [18]: 100%
residual activity [19]: 100%
residual activity [20]: 100%
residual activity [21]: 95%
inhibition [22]: -9.11%
residual activity [23]: 58%
residual activity [24]: 100%
residual activity [25]: 98%
residual activity [26]: 100%
residual activity [27]: 100%
residual activity [28]: 100%
inhibition [29]: 1.65%
residual activity [30]: 82%
residual activity [31]: 100%
residual activity [32]: 100%
residual activity [33]: 100%
residual activity [34]: 98%
residual activity [35]: 100%
residual activity [36]: 100%
residual activity [37]: 57%
residual activity [38]: 75%
residual activity [39]: 100%
residual activity [40]: 100%
residual activity [41]: 100%
inhibition [42]: -1.16%
residual activity [43]: 100%
residual activity [44]: 53%

CCC(=O)N[C@H]1CC[C@@H](C(=O)N(C)c2ccc(-c3nc4ccccc4o3)cc2)C1 [BI 99179]
residual activity [1]: 100%
residual activity [2]: 77%
residual activity [3]: 100%
residual activity [4]: 88%
residual activity [5]: 87%
residual activity [6]: 100%
residual activity [7]: 90%
residual activity [8]: 79%
inhibition [9]: -3.14%
inhibition [10]: 28.9%
residual activity [11]: 91%
residual activity [12]: 100%
residual activity [13]: 90%
residual activity [14]: 94%
residual activity [15]: 83%
residual activity [16]: 100%
residual activity [17]: 85%
residual activity [18]: 93%
residual activity [19]: 100%
residual activity [20]: 80%
residual activity [21]: 99%
inhibition [22]: -1.4%
residual activity [23]: 48%
residual activity [24]: 100%
residual activity [25]: 63%
residual activity [26]: 100%
residual activity [27]: 100%
residual activity [28]: 100%
inhibition [29]: -8.17%
residual activity [30]: 92%
residual activity [31]: 100%
residual activity [32]: 76%
residual activity [33]: 100%
residual activity [34]: 82%
residual activity [35]: 82%
residual activity [36]: 85%
residual activity [37]: 86%
residual activity [38]: 99%
residual activity [39]: 84%
residual activity [40]: 92%
residual activity [41]: 100%
inhibition [42]: -2.15%
residual activity [43]: 100%
residual activity [44]: 58%
